# Measurements reported in publication PMC9246096, “Structure-activity relationship studies for inhibitors for vancomycin-resistant Enterococcus and human carbonic anhydrases” (Journal of Enzyme Inhibition and Medicinal Chemistry, 2022).
# Values joined by “and” are separate entries in the source; they are usually repeats but may differ in a detail not shown here. Equal entries are not always repeated. Where two headings read alike, the source gives them in different places.
# Experiments:
# E. faecium α-CA (Efα-CA) = E. faecium α-CA (Efα-CA) (Enterococcus faecium, UniProt Q3XYE8); type: biochemical
# Sequence of E. faecium α-CA (Efα-CA) (Q3XYE8 entry or part of it): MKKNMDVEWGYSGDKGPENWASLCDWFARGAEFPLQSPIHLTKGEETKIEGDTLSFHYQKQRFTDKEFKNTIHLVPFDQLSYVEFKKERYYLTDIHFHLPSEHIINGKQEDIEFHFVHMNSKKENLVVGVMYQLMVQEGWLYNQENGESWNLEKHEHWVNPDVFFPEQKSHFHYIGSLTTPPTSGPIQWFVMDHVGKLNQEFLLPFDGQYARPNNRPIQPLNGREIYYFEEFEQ
# Protocol: (§1) Both Efα-CA and Efγ-CA were recombinantly expressed and purified as follows. A pHis2 plasmid (GenScript) containing either the Efα-CA sequence or Efγ-CA sequence was used for the expression of hexa-histidine tagged protein in a bacterial culture. […] Starter cultures were grown at 37 °C with shaking at 225 rpm overnight. One litre of autoclaved Luria-Bertani broth containing 100 µg/mL ampicillin and 1 mM ZiCl2 was inoculated with a 10-ml aliquot of the starter culture and grown at 37 °C with shaking at 225 rpm to an OD of 0.8 before being cold shocked and induced with 500 µL of IPTG (1 M). The induced cultures were grown for 16 h at 17 °C with shaking at 225 rpm. Bacterial cell pellets were spun down at 4000 g for 20 min and resuspended in 1× PBS containing 0.5 mM TCEP, 5% glycerol, pH = 7.4 to which 5 mg lysozyme was added to aid in lysis. The resuspended bacterial cells were incubated on ice for 20 min and then lysed via sonication. Lysed bacterial cells were pelleted by centrifugation at 14,000 g for 1 h to remove cellular debris, and the supernatant was loaded onto a nickel-NTA column equilibrated with 1x PBS containing 0.5 mM TCEP, 5% glycerol, pH = 7.4. Once flowthrough was collected, the protein was eluted using a 0–500 mM imidazole stepwise gradient in the same equilibration buffer, and fractions were collected. Fractions that contained the desired protein, as determined by SDS-PAGE, were combined and subjected to TEV protease for His-tag cleavage. After the addition of TEV, the protein was dialysed for 4 h against 1× PBS containing 0.5 mM TCEP, 5% glycerol, pH = 7.4. The dialysed protein solution was loaded back onto a nickel-NTA column equilibrated with 1x PBS containing 0.5 mM TCEP, 5% glycerol, pH = 7.4 for the subtraction of TEV followed by its elution with the same buffer containing 500 mM imidazole. The protein eluted prior to the imidazole was concentrated using Amicon Ultra Centrifugal Filters and purified by size-exclusion chromatography (SEC) on an S100 column using running buffer 1x PBS containing 0.5 mM TCEP, 5% glycerol, pH = 7.4. Fractions that contained the protein of interest as confirmed by SDS-PAGE were concentrated, flash frozen, and placed in −80 °C for future use.
# (§2) The assay was performed according to previously published protocols. Recombinant Efα-CA and Efγ-CA was obtained as described above and hCA I and hCA II were purchased from Millipore Sigma (hCA I Catalog# C4396-5MG; hCA II Catalog #C6624-500UG). Ki values were determined from inputting the IC50 values into the Cheng–Prusoff equation[25] for Ki from catalytic inhibition constants.
# E. faecium γ-CA (Efγ-CA) = E. faecium γ-CA (Efγ-CA) (Enterococcus faecium, UniProt Q3XX77); experiment: biochemical; type: biochemical
# Sequence of E. faecium γ-CA (Efγ-CA) (Q3XX77 entry or part of it): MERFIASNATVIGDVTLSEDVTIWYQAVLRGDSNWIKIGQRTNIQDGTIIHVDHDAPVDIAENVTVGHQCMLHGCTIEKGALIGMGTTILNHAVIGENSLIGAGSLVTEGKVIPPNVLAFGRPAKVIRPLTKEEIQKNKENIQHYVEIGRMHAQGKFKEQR
# Protocol: as §1, §2
# human CA I (hCAI) = biological target: human CA I (hCAI); design: method as in PMID 24316122; settings: previously reported; read-out: Ki hCA I; cited from earlier work
# human CA II (hCAII) = biological target: human CA II (hCAII); design: method as in PMID 24316122; settings: previously reported; read-out: Ki hCA II; cited from earlier work
# VRE strains = settings: full data set published by Kaur et al.; cited from earlier work
# [1] = recombinant Efα-CA; Ki from IC50 via Cheng–Prusoff; read-out: Ki Efα-CA
# [2] = recombinant Efγ-CA, Ki from IC50 via Cheng–Prusoff, read-out: Ki Efγ-CA
# [3] = read-out: Ki Efα-CA; recombinant Efα-CA; Ki from IC50 via Cheng–Prusoff
# [4] = Ki Efγ-CA, recombinant Efγ-CA, Ki from IC50 via Cheng–Prusoff
SMILES,Ki (E. faecium α-CA (Efα-CA); [1]) [nM],Ki (E. faecium γ-CA (Efγ-CA); [2]) [nM],Ki (human CA I (hCAI)) [nM],Ki (human CA II (hCAII)) [nM],Ki (E. faecium α-CA (Efα-CA); [3]) [nM],Ki (E. faecium γ-CA (Efγ-CA); [4]) [nM],further results
CN1CCN(CC(=O)Nc2nnc(S(N)(=O)=O)s2)CC1 [Cmpd 25],,,,,81.5,64.7,
NS(=O)(=O)c1nnc(NC(=O)CC2CCCCC2)s1 [Cmpd 18],,,58.7,,14.5,305,
CCNc1nnc(S(N)(=O)=O)s1 [Cmpd 26],,,701,,165,505,
NS(=O)(=O)c1nnc(NCC2CCCCC2)s1 [Cmpd 27],,,1140,,117,398,
NS(=O)(=O)c1nnc(NC(=O)CC2CCCC2)s1 [Cmpd 17],21.9,233,86.3,19.4,,,fold reduced potency against Efα-CA (E. faecium α-CA (Efα-CA); compared to matched molecular paired analog 10): about 2 fold
NS(=O)(=O)c1nnc(NC(=O)CN2CCOCC2)s1 [Cmpd 24],,,,,,56.4,
NS(=O)(=O)c1nnc(NC(=O)c2ccccc2)s1 [Cmpd 14],,,109,,,94.8,
CC(C)CC(=O)Nc1nnc(S(N)(=O)=O)s1 [Cmpd 5],62.7,279,215,55.6,,,
NS(=O)(=O)c1nnc(NC(=O)C2CCCCC2)s1 [Cmpd 11],,,63.3,,49.3,131,
CCC(=O)Nc1nnc(S(N)(=O)=O)s1 [Cmpd 1],,,,,37.5,250,
CC(C)(C)C(=O)Nc1nnc(S(N)(=O)=O)s1 [Cmpd 3],,,167,,29.8,441,
CCCCCCC(=O)Nc1nnc(S(N)(=O)=O)s1 [Cmpd 7],78.8,632,328,22.7,,,MIC (VRE strains): 0.015 µg/mL
CCCC(=O)Nc1nnc(S(N)(=O)=O)s1 [Cmpd 4],,,,,50.1,325,
CC(C)(C)CC(=O)Nc1nnc(S(N)(=O)=O)s1 [Cmpd 6],69.6,389,231,7.3,,,MIC (VRE strains): 0.015 µg/mL
NS(=O)(=O)c1nnc(NC(=O)CCc2ccccc2)s1 [Cmpd 21],,,855,,,,
NS(=O)(=O)c1nnc(NC(=O)CCC2CCCCC2)s1 [Cmpd 20],,,946,,,346,MIC (VRE strains): 0.007 µg/mL
CC(=O)Nc1ccc(S(N)(=O)=O)cc1 [Cmpd 30],,,1330,67.7,,,Ki (E. faecium α-CA (Efα-CA); read-out: Ki Efα-CA): 180 nM; Ki (E. faecium γ-CA (Efγ-CA); read-out: Ki Efγ-CA): 529 nM
CC(=O)Nc1ncc(S(N)(=O)=O)s1 [Cmpd 29],375,1130,465,97.2,,,fold reduction in binding affinity against Efα-CA (E. faecium α-CA (Efα-CA); compared to AZM): 6 fold and 7 fold; fold reduction in binding affinity against Efγ-CA (E. faecium γ-CA (Efγ-CA); compared to AZM): 3.5 fold
CC(C)C(=O)Nc1nnc(S(N)(=O)=O)s1 [Cmpd 2],,,180,,23.7,218,

# Now from value to molecule, other results behind:
Ki (E. faecium α-CA (Efα-CA); [1]) [nM],Ki (E. faecium γ-CA (Efγ-CA); [2]) [nM],SMILES,Ki (human CA I (hCAI)) [nM],Ki (human CA II (hCAII)) [nM],Ki (E. faecium α-CA (Efα-CA); [3]) [nM],Ki (E. faecium γ-CA (Efγ-CA); [4]) [nM],further results
9.8,195,NS(=O)(=O)c1nnc(NC(=O)C2CCCC2)s1 [Cmpd 10],76.5,26.2,,,
38.1,92.8,NS(=O)(=O)c1nnc(NC(=O)CN2CCCC2)s1 [Cmpd 22],64.7,58.1,,,
27.2,286,NS(=O)(=O)c1nnc(NC(=O)C2CCC2)s1 [Cmpd 9],125,41.5,,,
11.7,311,NS(=O)(=O)c1nnc(NC(=O)CC2CC2)s1 [Cmpd 15],372,7.6,,,
163,282,NS(=O)(=O)c1nnc(NCc2ccccc2)s1 [Cmpd 28],1620,,,,
18.4,408,NS(=O)(=O)c1nnc(NC(=O)CC2CCC2)s1 [Cmpd 16],77.8,4.9,,,
29.6,345,CC1CCC(C(=O)Nc2nnc(S(N)(=O)=O)s2)CC1 (stereo not shown) [Cmpd 13],152,26,,,
29.5,111,NS(=O)(=O)c1nnc(NC(=O)CN2CCCCC2)s1 [Cmpd 23],53.4,20.9,,,
44.5,240,CC1(C(=O)Nc2nnc(S(N)(=O)=O)s2)CCCCC1 [Cmpd 12],117,47.7,,,
36.2,193,NS(=O)(=O)c1nnc(NC(=O)C2CC2)s1 [Cmpd 8],157,24.6,,,
39.3,245,NS(=O)(=O)c1nnc(NC(=O)CCC2CCCC2)s1 [Cmpd 19],190,10.2,,,
